# According to publication PMC8161536, “Structure-tuned membrane active Ir-complexed oligoarginine overcomes cancer cell drug resistance and triggers immune responses in mice” (Chemical Science, 2020):
# How the values were obtained:
# Format in all cases: cell-based
# A549/DDP = assay: MTT cytotoxicity, cisplatin-resistant A549/DDP; settings: Ir-cR8 24 h, cisplatin 48 h, unit inferred, test concentrations in μM, read-out: Antiproliferative activity (IC50) A549/DDP
# Description: (Waters Corp., USA) The gradient mobile phase consisted of acetonitrile (A) and H2O (B) both containing […] A typical 15 min sample run consisted of 2 min of 20% solvent A and 80% solvent B followed by an increment of solvent A up to 23% for the remaining 2 min. Then the proportion of solvent A was increased to 45% in the following 8 min and decreased to 20% in the last 3 min. The analytes were monitored by a photo diode array (PDA) detector set at 220 nm and 254 nm and the flow rate was set to 0.3 mL min-1. The separated metallopeptides were collected to lyophilized and quantified by ICP-MASS, then for MTT assay. Circular dichroism assay of Ir-peptides […] The collected Ir- peptides were lyophilized and quantified by ICP-MASS. The Ir-peptides, isomers, mixture of two isomers were diluted to same concentration for circular dichroism test. (Chirascan-plus, Applied photophysics) LogP assay Water and octanol (1:1, v/v) were saturated for 24 h at room temperature and separated as aqueous phase and oil phase. Ir- […] […] CCK-8 of 20 μL was added in each well and incubated for 4 h, then the absorbance at 450 nm of each well was obtained by microplate spectrophotometer to calculate the cell viability. […] The absorbance […]
# HL60/Ara-C = assay: CCK-8 cytotoxicity, cytarabine-resistant HL60/Ara-C; settings: Homo sapiens, HL-60; read-out: Antiproliferative activity (IC50) HL60/Ara-C
# HL60 = assay: CCK-8 cytotoxicity, HL60; settings: Homo sapiens, HL-60; read-out: Antiproliferative activity (IC50) HL60
# HL60/ADR = assay: CCK-8 cytotoxicity, doxorubicin-resistant HL60/ADR; settings: Homo sapiens, read-out: Antiproliferative activity (IC50) HL60/ADR
# A549/Taxol = assay: MTT cytotoxicity, paclitaxel-resistant A549/Taxol; settings: read-out: Antiproliferative activity (IC50) A549/Taxol
# Description: mm × 2.1 mm column. (Waters Corp., USA) The gradient mobile phase consisted of acetonitrile (A) and H2O (B) both containing
# 0.1% trifluoroacetic acid. A typical 15 min sample run consisted of 2 min of 20% solvent A and 80% solvent B followed by an
# increment of solvent A up to 23% for the remaining 2 min. Then the proportion of solvent A was increased to 45% in the
# following 8 min and decreased to 20% in the last 3 min. The analytes were monitored by a photo diode array (PDA) detector
# set at 220 nm and 254 nm and the flow rate was set to 0.3 mL min-1. The separated metallopeptides were collected to
# lyophilized and quantified by ICP-MASS, then for MTT assay.
# Circular dichroism assay of Ir-peptides
# peptides were lyophilized and quantified by ICP-MASS. The Ir-peptides, isomers, mixture of two isomers were diluted to same
# concentration for circular dichroism test. (Chirascan-plus, Applied photophysics)
# Water and octanol (1:1, v/v) were saturated for 24 h at room temperature and separated as aqueous phase and oil phase. Ir- […]
# the standard curves by fluorescence spectrophotometer, Ex Slit:5.0 nm, Em Slit:5.0 nm, 650 V. Then the aqueous phase’s
# fluorescence intensities in samples containing both oil and aqueous phases were scanned, the concentration in aqueous phase
# of each Ir-peptide was calculated by standard curve, the Ir-peptide’s initial concentration in aqueous phase minus 24 hour’s […]
# HeLa cells = settings: 24 h
# Description: (Waters Corp., USA) The gradient mobile phase consisted of acetonitrile (A) and H2O (B) both containing […] A typical 15 min sample run consisted of 2 min of 20% solvent A and 80% solvent B followed by an increment of solvent A up to 23% for the remaining 2 min. Then the proportion of solvent A was increased to 45% in the following 8 min and decreased to 20% in the last 3 min. The analytes were monitored by a photo diode array (PDA) detector set at 220 nm and 254 nm and the flow rate was set to 0.3 mL min-1. The separated metallopeptides were collected to lyophilized and quantified by ICP-MASS, then for MTT assay. Circular dichroism assay of Ir-peptides […] The collected Ir- peptides were lyophilized and quantified by ICP-MASS. The Ir-peptides, isomers, mixture of two isomers were diluted to same concentration for circular dichroism test. (Chirascan-plus, Applied photophysics) LogP assay Water and octanol (1:1, v/v) were saturated for 24 h at room temperature and separated as aqueous phase and oil phase. Ir- […] Samples were stirred for 24 h at room […] the standard curves by fluorescence spectrophotometer, Ex Slit:5.0 nm, Em Slit:5.0 nm, 650 V. Then the aqueous phase's fluorescence intensities in samples containing both oil and aqueous phases were scanned, the concentration in aqueous phase of each Ir-peptide was calculated by standard curve, the Ir-peptide's initial concentration in aqueous phase minus 24 hour's concentration in aqueous phase to obtain the 24 hour's concentration in oil phase, logP=log(c oil/caqueous). Cell culture […] cells were incubated in RPMI 1640 medium with 10% fetal bovine serum, 37 °C, 5%CO2. […] Pharmacology Department, College of Pharmaceutical Sciences, Soochow University. […] obtained from Institute of Hematology and Blood Diseases Hospital, Chinese Academy of Medical Sciences & Peking Union Medical College. Induction of cisplatin resistant A549/DDP cells […] entering the logarithmic growth period. Then the medium was replaced by DMEM medium containing 10% fetal bovine serum and 0.125 μM cisplatin. The cells were incubated with cisplatin for 24 h and the medium was removed and no cisplatin DMEM […] The induction followed this […] The concentration of cisplatin was twice as much as before in each induction. Then the cells were incubated with DMEM containing 10% fetal bovine serum and 4 μM cisplatin for two months and medium containing cisplatin was replaced by no-cisplatin medium two weeks before experiment. Cytotoxicity HeLa cells were cultured in 96-well microplates, 8*10^3 cells per well overnight. […] CCK-8 of 20 μL was added in each well and incubated for 4 h, then the absorbance at 450 nm of each well was obtained by microplate spectrophotometer to calculate the cell viability. […] The absorbance […]
compound,measurement,setting,value
"N.N.[Cl][Pt][Cl] [Cisplatin, cisplatin]",IC50,A549/DDP,> 128 µM
"Nc1ccn([C@@H]2O[C@H](CO)[C@@H](O)[C@@H]2O)c(=O)n1 [Cytarabine, cytarabine]",IC50,HL60/Ara-C,> 128 µM
same,IC50,HL60,0.07 ± 0.003 µM
"COc1cccc2c1C(=O)c1c(O)c3c(c(O)c1C2=O)C[C@@](O)(C(=O)CO)C[C@@H]3O[C@H]1C[C@H](N)[C@H](O)[C@H](C)O1 [Doxorubicin, doxorubicin]",IC50,HL60,0.13 ± 0.06 µM
same,IC50,HL60/ADR,8.3 ± 0.2 µM
"CC(=O)O[C@H]1C(=O)[C@@]2(C)[C@H]([C@H](OC(=O)c3ccccc3)[C@]3(O)C[C@H](OC(=O)[C@H](O)[C@@H](NC(=O)c4ccccc4)c4ccccc4)C(C)=C1C3(C)C)[C@]1(OC(C)=O)CO[C@@H]1C[C@@H]2O [Paclitaxel, paclitaxel]",IC50,A549/Taxol,25.8 ± 0.5 µM
Ac-HHRRR-NH2 [aR3],IC50,HeLa cells,> 100 µM
Ac-HHRRRR-NH2 [aR4],IC50,HeLa cells,> 100 µM
Ac-HRRRH-NH2 [cR3],IC50,HeLa cells,> 100 µM
Ac-HRRRRH-NH2 [cR4],IC50,HeLa cells,> 100 µM
